Data taken from the supplement of paper PMC4862054.

Legend:
Conditions in all cases: incubation time: 72 h
BT-474 [1] = assay: normalised response (% of control), CellTiter-Glo; higher = more viable cells (100 = DMSO, 0 = benzethonium chloride kill control)
Method: (§1)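 DSRT, 72 h incubation, CellTox Green / CellTiter-Glo readout. Signal is normalised to DMSO and benzethonium chloride controls. Value is the normalised response at dose 3.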

MFM-223 [2] = assay: as above
Method: as §1

HDQ-P1 [3] = assay: as above
Method: as §1

SK-BR-3 = assay: as above
Method: as §1

HCC1937 = assay: as above
Method: as §1

HCC1599 [4] = assay: as above
Method: as §1

Hs578T [5] = assay: as above
Method: as §1

MCF-10A [6] = assay: as above
Method: as §1

BT-549 [7] = assay: as above
Method: as §1

MDA-MB-231 [8] = assay: as above
Method: as §1

HCC1143 [9] = assay: as above
Method: as §1

MDA-MB-436 [10] = assay: as above
Method: as §1

CAL-148 [11] = assay: as above
Method: as §1

CAL-51 [12] = assay: as above
Method: as §1

CAL-120 [13] = assay: as above
Method: as §1

DU-4475 [14] = assay: as above
Method: as §1

MDA-MB-453 [15] = assay: as above
Method: as §1

CAL-85-1 [16] = assay: as above
Method: as §1

MDA-MB-468 [17] = assay: as above
Method: as §1

BT-474 [18] = assay: normalised response (% of control), CellTox Green; higher = less cell death (100 = DMSO, 0 = benzethonium chloride kill control)
In short: (§2)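 Breast cancer cell lines, seeded at 20 µl suspension per well, were incubated for 72 h in 384-well plates containing compound at 5 concentrations. These concentrations rose in 10-fold steps over a 10,000-fold range set for each compound. CellTox Green fluorescence (485/520 nm) was read, then CellTiter-Glo luminescence after 10 min at room temperature, and each plate was normalised to 0.1 % DMSO (100) and a positive kill control (0). Values are normalised signals, each at one concentration.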

MFM-223 [19] = assay: as above
In short: as §2

HDQ-P1 [20] = assay: as above
In short: as §2

HCC1599 [21] = assay: as above
In short: as §2

Hs578T [22] = assay: as above
In short: as §2

MCF-10A [23] = assay: as above
In short: as §2

BT-549 [24] = assay: as above
In short: as §2

MDA-MB-231 [25] = assay: as above
In short: as §2

HCC1143 [26] = assay: as above
In short: as §2

MDA-MB-436 [27] = assay: as above
In short: as §2

CAL-148 [28] = assay: as above
In short: as §2

CAL-51 [29] = assay: as above
In short: as §2

CAL-120 [30] = assay: as above
In short: as §2

DU-4475 [31] = assay: as above
In short: as §2

MDA-MB-453 [32] = assay: as above
In short: as §2

CAL-85-1 [33] = assay: as above
In short: as §2

MDA-MB-468 [34] = assay: as above
In short: as §2

Row | SMILES | normalised response (BT-474 [1]) | normalised response (MFM-223 [2]) | normalised response (HDQ-P1 [3]) | normalised response (SK-BR-3) | normalised response (HCC1937) | normalised response (HCC1599 [4]) | normalised response (Hs578T [5]) | normalised response (MCF-10A [6]) | normalised response (BT-549 [7]) | normalised response (MDA-MB-231 [8]) | normalised response (HCC1143 [9]) | normalised response (MDA-MB-436 [10]) | normalised response (CAL-148 [11]) | normalised response (CAL-51 [12]) | normalised response (CAL-120 [13]) | normalised response (DU-4475 [14]) | normalised response (MDA-MB-453 [15]) | normalised response (CAL-85-1 [16]) | normalised response (MDA-MB-468 [17]) | normalised response (BT-474 [18]) | normalised response (MFM-223 [19]) | normalised response (HDQ-P1 [20]) | normalised response (HCC1599 [21]) | normalised response (Hs578T [22]) | normalised response (MCF-10A [23]) | normalised response (BT-549 [24]) | normalised response (MDA-MB-231 [25]) | normalised response (HCC1143 [26]) | normalised response (MDA-MB-436 [27]) | normalised response (CAL-148 [28]) | normalised response (CAL-51 [29]) | normalised response (CAL-120 [30]) | normalised response (DU-4475 [31]) | normalised response (MDA-MB-453 [32]) | normalised response (CAL-85-1 [33]) | normalised response (MDA-MB-468 [34])
1 | Cc1sc2c(c1C)C(c1ccc(Cl)cc1)=N[C@@H](CC(=O)OC(C)(C)C)c1nnc(C)n1-2 [(+)JQ1] (100 nM) | 86.2% | 95% | 89.5% | 92.8% | 85% | 97.3% | 73.4% | 84.6% | 76% | 94.8% | 99.5% | 102% | 117% | 106% | 97.9% | 93.5% | 94.6% | 88.8% | 89.3% | 79% | 103% | 96.3% | 105% | 104% | 111% | 95.7% | 96.2% | 111% | 68.7% | 98.3% | 101% | 82.9% | 101% | 108% | 83.9% | 131%
2 | Oc1ncnc2[nH]ncc12 [Allopurinol] (100 nM) | 101% | 109% | 101% | 105% | 101% | 111% | 105% | 104% | 91.4% | 105% | 106% | 99.5% | 104% | 86.8% | 103% | 106% | 110% | 104% | 107% | 98.1% | 91.8% | 103% | 104% | 103% | 89.3% | 94.6% | 112% | 113% | 102% | 86.5% | 98.8% | 103% | 101% | 102% | 109% | 92.2%
3 | CC1=C2C[C@H]3[C@@H](CC=C4C[C@@H](O)CC[C@@]43C)[C@@H]2CC[C@]12O[C@@H]1C[C@H](C)CN[C@H]1[C@H]2C [Cyclopamine] (100 nM) | 101% | 109% | 99.9% | 112% | 97.2% | 100% | 105% | 106% | 95% | 109% | 104% | 99.7% | 114% | 99.3% | 104% | 109% | 122% | 106% | 108% | 101% | 107% | 68.2% | 104% | 95.4% | 94.2% | 102% | 102% | 115% | 86% | 104% | 85.7% | 99.6% | 102% | 97.4% | 94.5% | 88.8%
4 | CC(=O)N(O)CCCCCNC(=O)CCC(=O)N(O)CCCCCNC(=O)CCC(=O)N(O)CCCCCN [Deferoxamine] (100 nM) | 95% | 93.5% | 101% | 88.2% | 89.7% | 102% | 101% | 96.8% | 100% | 93.2% | 99.1% | 102% | 88.7% | 96.2% | 99.2% | 93.9% | 84.4% | 95% | 95.8% | 94.5% | 102% | 96.1% | 92.5% | 94.9% | 90.1% | 97.8% | 78.7% | 102% | 95.5% | 92.4% | 104% | 103% | 98.1% | 102% | 104% | 114%
